According to patent US7307063B2, “Melanocortin metallopeptides for treatment of sexual dysfunction” (Palatin Technologies, Inc., priority 2001, dated 2007):
Non-standard residues stand in square brackets, D forms with d. No end group written: not given here. *: point of attachment. 2Nal = N[C@@H](Cc1ccc2ccccc2c1)C(=O)O; Heptanoyl = CCCCCCC(=O)*; Nle = CCCC[C@H](N)C(=O)O

Tests used:
MC1-R = molecular target: T1, MC1-R (Mus musculus, UniProt Q01727); test: Competitive binding assay: inhibition of 125I-NDP-α-MSH binding to membranes from B16-F10 mouse melanoma cells; conditions: Table 6, mean of triplicate
T1 construct: MC1-R membranes were isolated from B16—F10 mouse melanoma cells; endogenous in cells; host or cells: B16-F10 mouse melanoma cells
Method: (§1) Rhenium-complexed metallopeptides of the formulas given in Table 1 were prepared, with the metallopeptides complexed with rhenium using the rhenium transfer agent ReOCl3(PPh3)2 in the presence of 1,8-Diazabicyclo[5,4,0] undec-7-ene as a base, as disclosed in International Application PCT/US00/16396, filed Jun. 14, 2000, Melanocortin Metallopeptide Constructs, Combinatorial Libraries and Applications, incorporated by reference herein. Affinities of compounds were measured using membranes from HEK-293 cells containing cloned human melanocortin receptor subtypes 3, 4 and 5. MC1-R membranes were isolated from B16—F10 mouse melanoma cells. The assay tube also contained a chosen concentration of the test peptide of this invention, complexed to a rhenium metal ion as indicated, for determining its efficacy in inhibiting the binding of ^125I-NDP-α-MSH to its receptor. Non-specific binding was measured by complete inhibition of binding of ^125I-NDP-α-MSH in the assay with the presence of 1 μM α-MSH. 100% specific binding was defined as the difference in radioactivity (cpm) bound to cell membranes in the absence and presence of 1 μM α-MSH. The cpm obtained in presence of test compounds were normalized with respect to 100% specific binding to determine the percent inhibition of ^125I-NDP-α-MSH binding.
(§2) Peptide sequences set forth in Table 6 were prepared using conventional synthetic means. The resulting sequences were rhenium-complexed to form metallopeptides, with the metallopeptides complexed with rhenium using the rhenium transfer agent ReOCl3(PPh3)2 in the presence of 1,8-Diazabicyclo[5,4,0] undec-7-ene as a base. Percent inhibition was determined as in Example 1 using the Re-complexed metallopeptides, using the same methods as described therein. All measures are means of triplicate determinations.

MC4-R = molecular target: T2, MC4-R (Homo sapiens, UniProt P32245); test: Competitive binding assay: inhibition of 125I-NDP-α-MSH binding to HEK-293 membranes with cloned human receptor subtype 4; conditions: Table 6, mean of triplicate
T2 construct: expressed in transfected cells; host or cells: HEK-293
Method: as §1, §2

T1 sequence (Q01727 whole entry): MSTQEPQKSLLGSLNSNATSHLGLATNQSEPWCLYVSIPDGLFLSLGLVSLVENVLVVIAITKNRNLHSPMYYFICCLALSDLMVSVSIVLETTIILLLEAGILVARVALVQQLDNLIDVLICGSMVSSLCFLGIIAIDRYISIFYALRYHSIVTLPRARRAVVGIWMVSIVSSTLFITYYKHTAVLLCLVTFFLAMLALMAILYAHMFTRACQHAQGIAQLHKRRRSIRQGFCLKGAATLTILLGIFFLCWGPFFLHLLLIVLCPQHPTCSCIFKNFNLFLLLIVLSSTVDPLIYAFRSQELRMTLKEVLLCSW
T2 sequence (P32245 whole entry): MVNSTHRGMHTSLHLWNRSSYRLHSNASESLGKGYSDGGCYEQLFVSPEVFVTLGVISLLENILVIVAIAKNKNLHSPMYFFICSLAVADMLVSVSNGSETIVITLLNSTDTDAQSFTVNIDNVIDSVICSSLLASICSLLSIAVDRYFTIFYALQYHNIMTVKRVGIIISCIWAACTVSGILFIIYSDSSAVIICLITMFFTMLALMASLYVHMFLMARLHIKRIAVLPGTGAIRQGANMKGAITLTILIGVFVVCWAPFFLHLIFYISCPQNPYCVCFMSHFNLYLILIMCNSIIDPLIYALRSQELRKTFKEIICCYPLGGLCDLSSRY

Substance	% Inhibition of Binding MC1-R (MC1-R; 1 μM) [%]	% Inhibition of Binding hMC4-R (MC4-R; 1 μM) [%]	other results
3′-Cl Phenyl acetyl-Arg-Ala-D-Phe(4′-CF3)-Cys-Trp-NH2	21	95	–
Heptanoyl-D-Hphe-D-Phe(2′-Cl)-Lys-Nal 2′-Cys-NH2	10	20	–
Ac-[Nle]A[dF][dC]RW-NH2	29	3	–
Heptanoyl-Ser(Bzl)-D-Phe(4′-Cl)-Arg-Phe(3′-F)-Cys-NH2	–	–	% Inhibition of Binding MC1-R (MC1-R; 0.1 μM): 19%; % Inhibition of Binding hMC4-R (MC4-R; 0.1 μM): 43%
D-Phe-Arg-Trp-Cys-Lys-NH2 ([dF]RWCK-NH2; also: metallopeptide)	–	81	–
Heptanoyl-Ser(Bzl)-D-Phe(4′-Cl)-Arg-Nal 2′-Cys-NH2	–	–	% Inhibition of Binding MC1-R (MC1-R; 0.1 μM): 16%; % Inhibition of Binding hMC4-R (MC4-R; 0.1 μM): 94%
Heptanoyl-Ser(Bzl)-D-Phe(4′-Cl)-Arg-Phe(3′-Cl)-Cys-NH2	–	–	% Inhibition of Binding MC1-R (MC1-R; 0.1 μM): 27%; % Inhibition of Binding hMC4-R (MC4-R; 0.1 μM): 67%
Heptanoyl-Ser(Bzl)-D-Phe(2′-Cl)-Lys-Phe-Cys-NH2	20	19	–
Heptanoyl-Ser(Bzl)-D-Phe(4′-Cl)-Arg-Hphe-Cys-NH2	38	43	–
Heptanoyl-Ser(Bzl)-D-Phe(4′-Cl)-Arg-Nal 2′-Cys-Lys-NH2	–	–	% Inhibition of Binding MC1-R (MC1-R; 0.1 μM): 78%; % Inhibition of Binding hMC4-R (MC4-R; 0.1 μM): 97%
3′-Br-Phenylacetyl-Arg-Arg-D-Phe(4′-CH2PO3Et3)-Cys-Trp-NH2	97	61	–
1′-Naphthyl acetyl-Arg-Arg-D-Phe(4′-Cl)-Cys-Trp-NH2	97	98	–
FR[dW]CW-NH2	37	34	–
Heptanoyl-Ser(Bzl)-D-Phe(4′-Cl)-Gly-Nal 2′-Cys-Lys-NH2	46	5	–
Ac-Nle-Arg-Ala-D-Nal 2′-Cys-Lys-NH2	23	36	–
Ac-Nle-Arg-Arg-D-Nal 2′-Cys-Trp-Lys-NH2	–	–	% Inhibition of Binding MC1-R (MC1-R; 0.1 μM): 95%; % Inhibition of Binding hMC4-R (MC4-R; 0.1 μM): 96%
Ph(CH2)2-CO-D-Phe(2′-Cl)-Lys-Nal 2′-Cys-NH2	0	26	–
[dF]R[dW]CK-NH2	66	55	–
Ac-[Nle]A[dF][dC]R-NH2	22	0	–
3′-Br-Phenylacetyl-Lys-Ala-D-Phe(4′-CH3)Cys-Lys-NH2	34	73	–
Heptanoyl-Hphe-D-Phe(4′-Cl)-Arg-Trp-Cys-NH2	–	–	% Inhibition of Binding MC1-R (MC1-R; 0.1 μM): 45%; % Inhibition of Binding hMC4-R (MC4-R; 0.1 μM): 80%

Substance	% Inhibition of Binding MC1-R (MC1-R; 1 μM) [%]	% Inhibition of Binding hMC4-R (MC4-R; 1 μM) [%]	other results
Ac-KA[dF][dC]RW-NH2	25	13	–
3′-Br Phenyl acetyl-Arg-Arg-D-Phe(3′-Cl)-Cys-Trp-NH2	79	96	–
Ac-WA[dF][dC]R-NH2	24	0	–
Heptanoyl-D-Phe-Arg-Trp-Cys-Lys-NH2 (Heptanoyl-[dF]RWCK-NH2; also: metallopeptide)	82	75	–
D-Phe(2′-Cl)-Lys-Nal 2′-Cys-NH2	51	69	–
Heptanoyl-Ser(Bzl)-D-Phe(2′-Br)-Lys-Nal 2′-Cys-NH2	27	82	–
2′-Naphthyl acetyl-Arg-Arg-D-Phe(4′-Cl)-Cys-Trp-NH2	93	96	–
Heptanoyl-Ser(Bzl)-D-Phe(4′-Cl)-Arg-Phe(2′-Cl)-Cys-NH2	–	–	% Inhibition of Binding MC1-R (MC1-R; 0.1 μM): 9%; % Inhibition of Binding hMC4-R (MC4-R; 0.1 μM): 28%
1-Naphthylacetyl-Arg-Arg-D-Phe(4′-Cl)-Cys-Nal 2′-NH2	–	98	–
(R)-4-amino-5-phenyl pentanoyl-Lys-Ala-D-Phe(4′-Me)-Cys-Trp-NH2	23	46	–
4′-Aminomethyl-Phenylacetyl-Arg-Arg-D-Phe(4′-Cl)-Cys-Trp-NH2	–	–	% Inhibition of Binding MC1-R (MC1-R; 0.1 μM): 81%; % Inhibition of Binding hMC4-R (MC4-R; 0.1 μM): 57%
Ser(Bzl)-D-Phe(4′-Cl)-Arg-D-Trp-Cys-NH2	65	82	–
Phe-Arg-Trp-Cys-Lys-NH2 (FRWCK-NH2; not fully specified; printed as Phe-Arg-Trp-Cys-Lys-NH2)	53	64	–
D-Phe(4′-Cl)-Arg-Nal 2′-Cys-Lys-NH2	–	–	% Inhibition of Binding MC1-R (MC1-R; 0.01 μM): 43%; % Inhibition of Binding hMC4-R (MC4-R; 0.01 μM): 73%
3′-Cl-Phenylacetyl-Arg-Arg-D-Phe(4′-CH2PO3Et3)-Cys-Trp-NH2	97	52	–
Ser(Bzl)-D-Phe(4′-Cl)-Arg-Nal 2′-Cys-Lys-NH2	–	–	% Inhibition of Binding MC1-R (MC1-R; 0.1 μM): 33%; % Inhibition of Binding hMC4-R (MC4-R; 0.1 μM): 95%
Ac-His-HyP(Bzl)-D-Phe(2′-Cl)-Arg-Nal 2′-Cys-NH2	84	99	–
4′-Aminomethyl-Phenylacetyl Arg-Arg-Ala-D-Phe(4′-Cl)-Cys-Trp-NH2	61	84	–
Ac-KA[dF][dC]R-NH2	8	0	–
Heptanoyl-R[dF]GWCK-NH2	92	32	–
Heptanoyl-Ser(Bzl)-D-Phe(4′-Cl)-Arg-Nal 1′-Cys-NH2	–	–	% Inhibition of Binding MC1-R (MC1-R; 0.1 μM): 3%; % Inhibition of Binding hMC4-R (MC4-R; 0.1 μM): 47%

Substance	% Inhibition of Binding MC1-R (MC1-R; 1 μM) [%]	% Inhibition of Binding hMC4-R (MC4-R; 1 μM) [%]	other results
Ser(Bzl)-D-Phe(4′-Cl)-Arg-Nal 2′-Cys-NH2	35	99	–
Heptanoyl-Ala-Nal 2′-Cys-Trp-NH2 (Heptanoyl-A[2Nal]CW-NH2; also: metallopeptide, metal not given here)	15	18	–
Heptanoyl-Ser(Bzl)-D-Phe(4′-Cl)-Arg-Thr(Bzl)-Cys-NH2	4	92	–
3′-Br Phenyl acetyl-Arg-Ala-D-Phe(4′-Me)-Cys-Trp-NH2	25	96	–
Ac-[Nle]AH[dF]RW[dC]K-NH2	87	41	–
Phe-Arg-Trp-Cys-Trp-NH2 (FRWCW-NH2; not fully specified; printed as Phe-Arg-Trp-Cys-Trp-NH2)	32	24	–
Heptanoyl-Ser(Bzl)-D-Phe(4′-Cl)-Arg-Tyr(3′-l)-Cys-NH2	–	–	% Inhibition of Binding MC1-R (MC1-R; 0.1 μM): 12%; % Inhibition of Binding hMC4-R (MC4-R; 0.1 μM): 92%
Ph(CH2)-CO-D-Phe(2′-Cl)-Lys-Nal 2′-Cys-NH2	11	22	–
Heptanoyl-Ser(Bzl)-D-Phe(4′-Cl)-Arg-Cys(Bzl)-Cys-NH2	30	72	–
Heptanoyl-Ser(Bzl)-D-Phe(4′-Cl)-Arg-Tyr-Cys-NH2	–	–	% Inhibition of Binding MC1-R (MC1-R; 0.1 μM): 6%; % Inhibition of Binding hMC4-R (MC4-R; 0.1 μM): 13%
Heptanoyl-Ser(Bzl)-D-Phe(4′-Cl)-Arg-Asp(OcHx)-Cys-NH2	–	–	% Inhibition of Binding MC1-R (MC1-R; 0.1 μM): 15%; % Inhibition of Binding hMC4-R (MC4-R; 0.1 μM): 25%
FR[dW]CK-NH2	21	12	–
D-Phe-Arg-Trp-Cys-Trp-NH2 ([dF]RWCW-NH2; also: metallopeptide)	90	70	–
2′-Naphthyl acetyl-Arg-Arg-D-Phe(3′-Cl)-Cys-Trp-NH2	78	90	–
Ac-Ser(Bzl)-D-Phe(4′-Cl)-Arg-Nal 2′-Cys-NH2	49	97	–
D-(N-Bzl) Phe(2′-Cl)-Lys-Nal 2′-Cys-NH2	69	97	–
Heptanoyl-Ser(Bzl)-D-Phe(2′-Cl)-Lys-Hphe-Cys-NH2	12	6	–
Heptanoyl-Ser(Bzl)-D-Nal 2′-Arg-Trp-Cys-Lys-NH2	72	100	–
Heptanoyl-Ser(Bzl)-D-Phe(2′-F)-Lys-Nal 2′-Cys-NH2	57	83	–
